Legend:
[1] = target: kinases (468) (Homo sapiens, UniProt O14757); conditions: CHEK1; 1000 nM
[2] = target: kinases (468) (Homo sapiens, UniProt O43318); conditions: kinase TAK1 (Entrez MAP3K7); compound concentration 1000 nM
[3] = target: kinases (468) (Homo sapiens, UniProt O95835); conditions: LATS1; 1000 nM
[4] = target: kinases (468) (Homo sapiens, UniProt P00533, L858R); conditions: EGFR(L858R); 1000 nM
[5] = target: kinases (468) (Homo sapiens, UniProt P14616); conditions: INSRR; 1000 nM
[6] = target: kinases (468) (Homo sapiens, UniProt P51617); conditions: IRAK1; 1000 nM
[7] = target: kinases (468) (Homo sapiens, UniProt P53355); conditions: DAPK1; 1000 nM
[8] = target: kinases (468) (Homo sapiens, UniProt P53671); conditions: LIMK2; 1000 nM
[9] = target: kinases (468) (Homo sapiens, UniProt P68400); conditions: CSNK2A1; 1000 nM
[10] = target: kinases (468) (Homo sapiens, UniProt Q12851); conditions: MAP4K2; 1000 nM
[11] = target: kinases (468) (Homo sapiens, UniProt Q13555); conditions: CAMK2G; 1000 nM
[12] = target: kinases (468) (Homo sapiens, UniProt Q14164); conditions: IKK-epsilon (IKBKE); 1000 nM
[13] = target: kinases (468) (Homo sapiens, UniProt Q15569); conditions: kinase TESK1 (Entrez TESK1); compound concentration 1000 nM
[14] = target: kinases (468) (Homo sapiens, UniProt Q16566); conditions: CAMK4; 1000 nM
[15] = target: kinases (468) (Homo sapiens, UniProt Q16620); conditions: kinase TRKB (Entrez NTRK2); compound concentration 1000 nM
[16] = target: kinases (468) (Homo sapiens, UniProt Q5VT25); conditions: MRCKA (CDC42BPA); 1000 nM
[17] = target: kinases (468) (Homo sapiens, UniProt Q6P2M8); conditions: CAMK1B (PNCK); 1000 nM
[18] = target: kinases (468) (Homo sapiens, UniProt Q7L7X3); conditions: kinase TAOK1 (Entrez TAOK1); compound concentration 1000 nM
[19] = target: kinases (468) (Homo sapiens, UniProt Q8WXR4); conditions: MYO3B; 1000 nM
[20] = target: kinases (468) (Homo sapiens, UniProt Q9BWU1); conditions: CDK11 (CDK19); 1000 nM
[21] = target: T1, ADRA2A (Homo sapiens, UniProt P08913); assay: SAFETYScan GPCR cAMP, Agonist; type: cell-based
T1 construct: expressed in transfected cells
T1 sequence (P08913 1-465): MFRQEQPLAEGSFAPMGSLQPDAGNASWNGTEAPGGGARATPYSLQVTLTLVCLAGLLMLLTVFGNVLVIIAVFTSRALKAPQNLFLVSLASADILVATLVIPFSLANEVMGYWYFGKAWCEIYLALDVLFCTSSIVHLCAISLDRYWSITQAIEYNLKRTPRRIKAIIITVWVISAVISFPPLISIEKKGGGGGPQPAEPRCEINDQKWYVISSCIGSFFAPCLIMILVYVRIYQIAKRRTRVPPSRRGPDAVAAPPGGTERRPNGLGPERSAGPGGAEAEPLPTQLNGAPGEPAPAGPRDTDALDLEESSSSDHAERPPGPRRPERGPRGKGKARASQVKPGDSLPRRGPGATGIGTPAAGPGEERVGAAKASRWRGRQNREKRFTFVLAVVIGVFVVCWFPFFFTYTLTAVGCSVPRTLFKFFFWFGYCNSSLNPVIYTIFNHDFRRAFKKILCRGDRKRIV
Source text: (§1) Supplement jm1c02175_si_002.xlsx, sheet "SAFETYScan" | column: RC50 (uM); Max Response

[22] = target: T2, CNR1 (Homo sapiens, UniProt P21554); assay: SAFETYScan GPCR cAMP, Agonist; type: cell-based
T2 construct: expressed in transfected cells
Source text: as §1

[23] = target: T3, HTR1B (Homo sapiens, UniProt P28222); assay: SAFETYScan GPCR cAMP, Agonist; type: cell-based
T3 construct: expressed in transfected cells
Source text: as §1

[24] = target: OPRD1 (Homo sapiens, UniProt P41143); assay: SAFETYScan GPCR cAMP, Agonist; type: cell-based
Source text: as §1

[25] = target: OPRM1 (Homo sapiens, UniProt P35372); assay: SAFETYScan GPCR cAMP, Agonist; type: cell-based
Source text: as §1

[26] = target: INSR (Homo sapiens, UniProt P06213); assay: SAFETYScan Kinases Binding, Inhibitor
Source text: as §1

[27] = target: LCK (Homo sapiens, UniProt P06239); assay: SAFETYScan Kinases Binding, Inhibitor
Source text: as §1

[28] = target: ROCK1 (Homo sapiens, UniProt Q13464); assay: SAFETYScan Kinases Binding, Inhibitor
Source text: as §1

[29] = target: VEGFR2 (Homo sapiens, UniProt P35968); assay: SAFETYScan Kinases Binding, Inhibitor
Source text: as §1

Chain of ROCK1 (Q13464 whole entry, species assumed): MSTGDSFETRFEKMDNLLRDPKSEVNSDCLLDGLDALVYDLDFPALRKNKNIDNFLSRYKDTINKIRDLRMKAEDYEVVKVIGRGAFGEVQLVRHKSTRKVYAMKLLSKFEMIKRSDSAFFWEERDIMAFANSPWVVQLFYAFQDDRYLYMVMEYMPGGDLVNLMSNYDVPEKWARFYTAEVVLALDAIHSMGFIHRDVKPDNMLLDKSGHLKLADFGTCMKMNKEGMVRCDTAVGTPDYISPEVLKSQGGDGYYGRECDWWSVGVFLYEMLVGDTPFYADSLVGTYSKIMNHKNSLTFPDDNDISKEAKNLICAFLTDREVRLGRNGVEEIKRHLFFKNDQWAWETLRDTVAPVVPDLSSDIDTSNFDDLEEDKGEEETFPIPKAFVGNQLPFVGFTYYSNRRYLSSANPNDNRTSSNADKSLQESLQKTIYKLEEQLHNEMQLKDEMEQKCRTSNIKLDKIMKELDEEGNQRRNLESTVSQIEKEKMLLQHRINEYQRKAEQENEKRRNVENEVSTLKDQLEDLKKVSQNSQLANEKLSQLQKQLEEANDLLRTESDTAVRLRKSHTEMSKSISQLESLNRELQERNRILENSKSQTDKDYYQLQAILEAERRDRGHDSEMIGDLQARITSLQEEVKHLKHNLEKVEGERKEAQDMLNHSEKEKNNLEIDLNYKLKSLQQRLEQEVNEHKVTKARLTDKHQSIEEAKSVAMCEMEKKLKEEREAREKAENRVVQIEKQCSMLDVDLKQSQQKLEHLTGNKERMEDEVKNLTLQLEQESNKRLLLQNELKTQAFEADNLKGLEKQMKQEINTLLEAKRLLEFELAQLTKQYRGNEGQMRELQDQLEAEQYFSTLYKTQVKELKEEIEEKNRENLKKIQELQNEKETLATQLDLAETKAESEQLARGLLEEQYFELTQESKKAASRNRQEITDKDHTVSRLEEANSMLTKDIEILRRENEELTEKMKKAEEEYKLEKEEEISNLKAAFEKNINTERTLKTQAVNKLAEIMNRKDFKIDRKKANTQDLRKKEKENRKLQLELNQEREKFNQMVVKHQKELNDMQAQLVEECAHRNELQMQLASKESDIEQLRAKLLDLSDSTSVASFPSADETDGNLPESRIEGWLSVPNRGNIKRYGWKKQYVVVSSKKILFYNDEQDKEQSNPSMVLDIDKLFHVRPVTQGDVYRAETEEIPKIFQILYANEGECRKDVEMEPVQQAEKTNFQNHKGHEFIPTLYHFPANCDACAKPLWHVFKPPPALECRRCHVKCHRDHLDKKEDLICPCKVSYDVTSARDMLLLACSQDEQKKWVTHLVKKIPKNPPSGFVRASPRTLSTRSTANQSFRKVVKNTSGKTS
Chain of OPRM1 (P35372 whole entry, species assumed): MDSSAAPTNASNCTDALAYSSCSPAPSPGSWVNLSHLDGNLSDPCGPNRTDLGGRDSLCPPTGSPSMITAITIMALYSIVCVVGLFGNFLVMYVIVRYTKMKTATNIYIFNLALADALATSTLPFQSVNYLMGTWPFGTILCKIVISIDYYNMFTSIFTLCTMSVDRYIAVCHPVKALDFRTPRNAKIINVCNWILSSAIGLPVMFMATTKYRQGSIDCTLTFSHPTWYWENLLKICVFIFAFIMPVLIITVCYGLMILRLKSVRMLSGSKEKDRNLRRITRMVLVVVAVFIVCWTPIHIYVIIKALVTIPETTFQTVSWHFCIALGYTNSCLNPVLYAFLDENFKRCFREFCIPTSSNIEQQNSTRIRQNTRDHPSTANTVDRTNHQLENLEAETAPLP
T2 sequence (P21554 whole entry): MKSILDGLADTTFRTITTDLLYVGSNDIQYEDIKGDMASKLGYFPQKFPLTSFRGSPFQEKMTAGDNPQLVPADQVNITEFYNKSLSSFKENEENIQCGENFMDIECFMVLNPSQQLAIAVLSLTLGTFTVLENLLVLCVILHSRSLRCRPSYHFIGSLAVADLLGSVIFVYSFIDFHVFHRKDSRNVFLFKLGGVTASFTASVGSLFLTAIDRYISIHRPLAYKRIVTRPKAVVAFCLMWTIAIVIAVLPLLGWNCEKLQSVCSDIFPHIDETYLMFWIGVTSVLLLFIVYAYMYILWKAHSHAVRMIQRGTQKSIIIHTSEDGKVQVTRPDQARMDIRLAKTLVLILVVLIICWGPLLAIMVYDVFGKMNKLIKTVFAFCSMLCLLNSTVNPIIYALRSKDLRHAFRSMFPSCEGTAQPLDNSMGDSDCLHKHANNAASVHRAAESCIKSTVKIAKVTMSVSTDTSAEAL
Chain of VEGFR2 (P35968 20-1356, species assumed): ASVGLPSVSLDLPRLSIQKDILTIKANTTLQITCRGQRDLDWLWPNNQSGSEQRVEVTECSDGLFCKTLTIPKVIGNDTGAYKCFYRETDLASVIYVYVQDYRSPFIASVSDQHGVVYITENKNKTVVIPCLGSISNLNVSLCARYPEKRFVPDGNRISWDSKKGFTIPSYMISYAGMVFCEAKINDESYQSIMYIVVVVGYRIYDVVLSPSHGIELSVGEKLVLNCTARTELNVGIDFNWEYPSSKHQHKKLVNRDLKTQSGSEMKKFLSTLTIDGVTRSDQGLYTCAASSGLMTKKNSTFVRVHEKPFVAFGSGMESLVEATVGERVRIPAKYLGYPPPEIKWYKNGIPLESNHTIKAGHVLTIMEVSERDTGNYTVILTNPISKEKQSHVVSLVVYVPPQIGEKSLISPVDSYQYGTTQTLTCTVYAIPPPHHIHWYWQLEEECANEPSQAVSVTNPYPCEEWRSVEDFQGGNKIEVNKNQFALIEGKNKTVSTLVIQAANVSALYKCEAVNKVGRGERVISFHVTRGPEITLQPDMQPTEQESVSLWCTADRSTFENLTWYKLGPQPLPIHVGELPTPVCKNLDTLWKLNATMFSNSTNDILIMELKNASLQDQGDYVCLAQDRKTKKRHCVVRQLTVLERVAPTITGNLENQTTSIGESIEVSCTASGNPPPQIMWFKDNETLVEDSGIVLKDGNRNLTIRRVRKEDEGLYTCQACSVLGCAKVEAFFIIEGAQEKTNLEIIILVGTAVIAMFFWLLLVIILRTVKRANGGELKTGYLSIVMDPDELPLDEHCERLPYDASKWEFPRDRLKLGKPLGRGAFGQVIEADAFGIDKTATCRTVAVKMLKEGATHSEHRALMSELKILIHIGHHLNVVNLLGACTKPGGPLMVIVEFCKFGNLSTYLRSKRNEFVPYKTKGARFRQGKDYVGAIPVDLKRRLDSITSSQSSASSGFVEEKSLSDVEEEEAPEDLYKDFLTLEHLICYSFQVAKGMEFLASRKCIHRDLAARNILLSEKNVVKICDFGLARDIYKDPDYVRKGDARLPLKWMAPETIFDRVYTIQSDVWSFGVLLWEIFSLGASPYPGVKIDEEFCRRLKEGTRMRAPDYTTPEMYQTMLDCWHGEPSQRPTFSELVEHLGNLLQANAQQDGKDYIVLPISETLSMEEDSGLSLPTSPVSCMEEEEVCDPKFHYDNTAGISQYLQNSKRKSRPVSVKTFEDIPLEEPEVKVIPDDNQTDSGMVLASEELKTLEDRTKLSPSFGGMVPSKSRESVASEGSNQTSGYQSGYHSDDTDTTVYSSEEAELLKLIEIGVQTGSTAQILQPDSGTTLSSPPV
Chain of INSR (P06213 28-1382, species assumed): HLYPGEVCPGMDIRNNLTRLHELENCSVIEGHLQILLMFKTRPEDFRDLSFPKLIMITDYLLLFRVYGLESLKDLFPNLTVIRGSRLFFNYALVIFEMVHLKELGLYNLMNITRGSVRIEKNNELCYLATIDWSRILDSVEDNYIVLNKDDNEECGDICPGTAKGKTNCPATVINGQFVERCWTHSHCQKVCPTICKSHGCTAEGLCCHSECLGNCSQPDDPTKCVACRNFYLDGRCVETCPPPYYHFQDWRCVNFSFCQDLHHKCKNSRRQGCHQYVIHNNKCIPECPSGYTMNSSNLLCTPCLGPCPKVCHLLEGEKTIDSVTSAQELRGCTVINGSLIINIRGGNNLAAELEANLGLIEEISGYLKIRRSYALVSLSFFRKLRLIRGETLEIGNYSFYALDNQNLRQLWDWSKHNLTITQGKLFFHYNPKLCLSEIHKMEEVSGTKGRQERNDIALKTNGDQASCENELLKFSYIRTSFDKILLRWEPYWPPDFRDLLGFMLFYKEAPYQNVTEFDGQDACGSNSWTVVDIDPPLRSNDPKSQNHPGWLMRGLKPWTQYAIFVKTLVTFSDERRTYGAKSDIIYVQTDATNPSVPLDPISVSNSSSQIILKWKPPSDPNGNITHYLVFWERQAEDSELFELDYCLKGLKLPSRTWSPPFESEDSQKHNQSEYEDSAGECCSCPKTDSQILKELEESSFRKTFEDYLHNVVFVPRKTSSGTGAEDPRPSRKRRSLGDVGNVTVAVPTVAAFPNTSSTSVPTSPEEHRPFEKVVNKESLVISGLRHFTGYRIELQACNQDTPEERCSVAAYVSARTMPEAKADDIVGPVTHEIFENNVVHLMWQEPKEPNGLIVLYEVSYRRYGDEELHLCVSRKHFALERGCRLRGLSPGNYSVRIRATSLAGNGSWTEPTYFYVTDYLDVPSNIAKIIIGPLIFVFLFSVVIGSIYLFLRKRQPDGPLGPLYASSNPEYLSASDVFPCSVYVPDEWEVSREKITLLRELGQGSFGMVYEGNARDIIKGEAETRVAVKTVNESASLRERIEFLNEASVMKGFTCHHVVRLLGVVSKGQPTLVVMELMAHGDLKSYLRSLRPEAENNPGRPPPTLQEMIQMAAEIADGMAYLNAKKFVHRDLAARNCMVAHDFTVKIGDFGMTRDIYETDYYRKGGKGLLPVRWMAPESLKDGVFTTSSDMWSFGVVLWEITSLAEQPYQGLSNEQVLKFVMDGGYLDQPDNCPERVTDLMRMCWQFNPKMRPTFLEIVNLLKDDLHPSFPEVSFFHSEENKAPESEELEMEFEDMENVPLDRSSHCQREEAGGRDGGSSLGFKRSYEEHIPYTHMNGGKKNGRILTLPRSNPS

**Q.** Which results are given for `C[C@H]1C[C@@H](O)CN(c2ncc(Cl)c(Nc3ccc4c(c3)c3c(c(=O)n4C)OCC(F)(F)[C@H](C4CC4)N3)n2)C1` [CCT373566_9A]?
**A.** Percent Control [1]: 100%; Percent Control [2]: 100%; Percent Control [3]: 94%; Percent Control [4]: 100%; Percent Control [5]: 100%; Percent Control [6]: 77%; Percent Control [7]: 83%; Percent Control [8]: 100%; Percent Control [9]: 91%; Percent Control [10]: 99%; Percent Control [11]: 96%; Percent Control [12]: 100%; Percent Control [13]: 100%; Percent Control [14]: 100%; Percent Control [15]: 97%; Percent Control [16]: 99%; Percent Control [17]: 69%; Percent Control [18]: 99%; Percent Control [19]: 100%; Percent Control [20]: 99%

**Q.** How did the Emax ([21]; read-out: Max Response) turn out when `C[C@H]1C[C@@H](O)CN(c2ncc(Cl)c(Nc3ccc4c(c3)c3c(c(=O)n4C)OCC(F)(F)[C@H](C4CC4)N3)n2)C1` [12a CCT373566, (S)-10-((5-Chloro-2-((3R,5S)-3-hydroxy-5-methylpiperidin-1-yl)pyrimidin-4-yl)amino)-2-cyclopropyl-3,3-difluoro-7-methyl-1,2,3,4-tetrahydro-[1,4]oxazepino[2,3-c]quinolin-6(7H)-one] was run?
**A.** 33.6%

**Q.** And the EC50 ([21]; read-out: RC50 (EC50))?
**A.** > 10 µM

**Q.** What about the Emax ([22]; read-out: Max Response) of the same compound?
**A.** 18.9%

**Q.** And the EC50 ([22]; read-out: RC50 (EC50))?
**A.** > 10 µM

**Q.** What about the Emax ([23]; read-out: Max Response) of the same compound?
**A.** 21.5%

**Q.** What about the EC50 ([23]; read-out: RC50 (EC50)) of the same compound?
**A.** > 10 µM

**Q.** What about the Emax ([24]; read-out: Max Response) of the same compound?
**A.** 60.3%

**Q.** And the EC50 ([24]; read-out: RC50 (EC50))?
**A.** 4.95 µM

**Q.** And the Emax ([25]; read-out: Max Response)?
**A.** 28.9%

**Q.** And the EC50 ([25]; read-out: RC50 (EC50))?
**A.** > 10 µM

**Q.** And the Emax ([26]; read-out: Max Response)?
**A.** 0%

**Q.** And the IC50 ([26]; read-out: RC50 (IC50))?
**A.** > 10 µM

**Q.** What about the Emax ([27]; read-out: Max Response) of the same compound?
**A.** 1.52%

**Q.** What about the IC50 ([27]; read-out: RC50 (IC50)) of the same compound?
**A.** > 10 µM

**Q.** And the Emax ([28]; read-out: Max Response)?
**A.** 14.9%

**Q.** And the IC50 ([28]; read-out: RC50 (IC50))?
**A.** > 10 µM

**Q.** And the Emax ([29]; read-out: Max Response)?
**A.** 15.8%

**Q.** What about the IC50 ([29]; read-out: RC50 (IC50)) of the same compound?
**A.** > 10 µM

Reference: publication PMC9234961 (Journal of Medicinal Chemistry, 2022)
